Drawing on ChEMBL document CHEMBL2331514, “Structure-based design and synthesis of novel pseudosaccharine derivatives as antiproliferative agents and kinase inhibitors” (Eur J Med Chem, 2013), this text covers logP for six molecules.

By logP is commonly meant the decadic logarithm of the partition coefficient of the neutral form, usually between octanol and water.

SMILES strings stand for the structures.

This series in a line: Partition coefficient, log P of the compound. The class given is physicochemical. Conditions: octanol/water.
`O=C(O)CCC(=O)Nc1ccc2c(c1)C(Nc1cccc(Br)c1)=NS2(=O)=O`: the lipophilicity (logP) worked out at 1.26.
The figure for `O=C(Nc1ccc(Cl)cc1)Nc1ccc(OC2=NS(=O)(=O)c3ccccc32)cc1` is 3.55.
With `O=C(Nc1ccc(Br)cc1)Nc1ccc(OC2=NS(=O)(=O)c3ccccc32)cc1` the figure was 3.64; with `CCOC(=O)C(=CNc1ccc2c(c1)C(Nc1cccc(Br)c1)=NS2(=O)=O)C(=O)OCC`, 2.48; with `CCOC(=O)C(=CNc1ccc2c(c1)C(Nc1ccc(Cl)cc1)=NS2(=O)=O)C(=O)OCC`, 2.39.
With `O=C(Nc1ccccc1)Nc1ccc2c(c1)C(Nc1ccc(Cl)cc1Cl)=NS2(=O)=O` the figure was 3.57.
